One test relates to GlyR. The conditions noted are these: full agonist, maximal current responses; cited from earlier work.
A further test has as its target T1, α1-GFP GlyR (Homo sapiens, UniProt P23415).
T1 construct: made in house; host or cells: Xenopus laevis oocytes injected with cRNA; total solubilized membranes in SMA nanodiscs
T1 sequence (P23415 29-457): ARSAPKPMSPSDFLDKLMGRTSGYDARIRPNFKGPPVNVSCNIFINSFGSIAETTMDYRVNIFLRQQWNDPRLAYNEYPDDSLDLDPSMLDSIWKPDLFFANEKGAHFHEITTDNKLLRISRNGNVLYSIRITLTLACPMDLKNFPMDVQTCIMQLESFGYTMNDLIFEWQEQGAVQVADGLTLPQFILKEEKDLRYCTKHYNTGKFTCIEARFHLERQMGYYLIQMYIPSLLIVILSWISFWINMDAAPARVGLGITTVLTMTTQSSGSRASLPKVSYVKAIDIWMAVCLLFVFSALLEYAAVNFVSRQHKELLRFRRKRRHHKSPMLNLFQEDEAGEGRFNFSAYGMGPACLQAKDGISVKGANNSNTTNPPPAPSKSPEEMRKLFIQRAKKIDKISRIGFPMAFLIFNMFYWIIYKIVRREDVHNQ
The test is described as follows: MST of α1-GFP GlyR SMA-copolymer nanodiscs (total solubilized membranes) from X. laevis oocytes. It is filed as binding. The following applies: mean ± SEM, read-out: cEC50 (MST). How it is done: cRNA was synthesized using the AmpliCap-Max T7 High Yield Message Maker Kit (Cellscript, Madison, WI, USA). Therefore GFP-GlyR α1 in pCDNA3.1(+) was linearized with NotI. Oozytes were surgically taken from female X. laevis after anesthesia with 0.1% Tricaine in water. For SMA-copolymer solubilization, 300–400 oocytes were injected with 50 ng in a volume of 50.6 nl of cRNA. After injection the oocytes were incubated in ND-96 solution (96 mM NaCl, 2 mM KCl, 1 mM CaCl2, 1 mM MgCl2, 5 mM HEPES, pH 7.4) at 18 °C for 1–2 days.

Another test addresses T2, α1 GlyR (Homo sapiens, UniProt P23415).
T2 construct: GFP (N); expressed in transfected cells; host or cells: Xenopus laevis oocytes (cRNA injection)
T2 sequence (P23415 29-457): T1 sequence (P23415 29-457)
Description: Two-electrode voltage-clamp whole-cell current recordings in X. laevis oocytes expressing α1 GlyR. It is filed as cell-based.

The structures appear in SMILES notation.

As to `NCC(=O)O` [glycine], the “opening times in single-channel recordings” value with GlyR is 95–98%.

Regarding `NCCS(=O)(=O)O` [taurine], the EC50 on α1-GFP GlyR was 474 ± 66.1 µM; at α1 GlyR (α1 GlyR expressed in X. laevis oocytes, clamped at −70 mV, mean ± SEM, read-out: aEC50 (electrophysiology)), 843 ± 16 µM. Besides, the “maximal current compared to glycine” value on α1 GlyR (α1 GlyR in X. laevis oocytes, normalized to maximum glycine currents, n = 3) stood at 61%.

These data come from article PMC7538598 (Scientific Reports, 2020).
